For test [1], the system named is HCV GT1b replicon (2209-23 cell line, GT-1b Con1 subgenomic replicon in Huh-7). Description: HCV GT1b replicon luciferase reporter assay. In kind it is cell-based. The note with it: Hepatitis C virus. The text has this: Determination of compounds HCV GT1b inhibitory replicon activity using the replicon luciferase reporter assay
The 2209-23 cell line was developed at Roche by stable transfection of the hepatoma cell line Huh-7 with a GT-1b Con1 subgenomic bicistronic replicon as previously described. Subgenomic replicon cell line was established in cured Huh7 cells, obtained from R. Bartenschlager (J. Virol. 2003 March; 77 (5):3007-19) The GT-1a H77 subgenomic replicon vector pRLuc H771b 75 S/I, was created by replacing the non structural region of the GT-1b Con1 subgenomic replicon by the one of the H77 strain, except for the first 75 amino acids of the NS3 protein that are from GT-1b Con1 strain. (J. Virol. 2001 77:5352-59) The GT-1a pRLuc H771b 75 S/I subgenomic replicon cell line was established in cured Huh7 cells, obtained from R. Bartenschlager. (J. Virol. 2003 March; 77 (5):3007-19)
All the subgenomic replicon cell lines were cultured in Dulbecco's Modified Eagle Medium (DMEM-Glutamax™-I; Invitrogen Cat #10569-010). The medium was supplemented with 10% Fetal Bovine Serum (Invitrogen Cat #10082-147), 1% penicillin/streptomycin (Mediatech Cat #30-002-CI) and 500 μg/ml of G418 (Mediatech Cat #30-234-CI). Cells were maintained at 37° C. in a humidified 5% CO2 atmosphere.
2209-23 cells were plated at a cell density of 5000 cells per well in 96 well plates (Becton Dickinson, Cat #35 3296). Cells were plated in 90 μl of Dulbecco's Modified Eagle Medium (DMEM-Glutamax™-I), (Invitrogen Cat #10569-010) medium was supplemented with 5% Fetal Bovine Serum (Invitrogen Cat #10082-147), 1% penicillin/streptomycin (Mediatech Cat #30-002-CI). The pRluc H771b 75 S/I cells were plated in 96-well plate at 3000 cells/well in DMEM-Glutamax™-I containing 5% FBS and 1% penicillin/streptomycin in 90 μl final volume. Cells were allowed to equilibrate for 24 hours at 37° C. and 5% CO2 at which time compounds were added. Compounds (or medium as a control) were added 24 hours post-plating in 3 fold dilutions at a final DMSO concentration of 1% in 10 ul volume. Renilla luciferase reporter signal was read 72 hours after addition of compounds using the Renilla Luciferase Assay System (Promega, cat #E2820). EC50 values were defined as the compound concentration at which a 50% reduction in the levels of renilla luciferase reporter was observed as compared to control samples in the absence of compound and was determined by non-linear fitting of compound dose-response data. The EC50 was approximated if maximum percentage inhibition was less than 90% and more than 70%.
Background: In antiviral work, replicon cells carry a viral genome segment that copies itself.

Test [2] has as its system GT-1a pRLuc H771b 75 S/I subgenomic replicon cell line. Briefly: HCV GT-1a replicon luciferase reporter assay. Type of test: cell-based. The note with it: Hepatitis C virus, GT1A, 72 h, read-out: GT-1a (IC50) (nM). The gist of the method:
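Huh-7-derived subgenomic replicon cells (GT-1b Con1 2209-23, 5000/well; GT-1a H77 chimera with Con1 NS3 first 75 aa, 3000/well) in 5% FBS DMEM; compounds added 24 h post-plating, 3-fold dilutions, 1% DMSO. Renilla luciferase read after 72 h; EC50 is 50% signal reduction versus untreated, non-linear fit.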

[3] abbreviates: Huh-7, 2209-23 cells (GT-1b Con1), Renilla luciferase read 72 hours after addition of compounds.
Where [4] appears, read: Huh-7, 2209-23 cells (GT-1b Con1), Renilla luciferase read 72 hours after addition of compounds, read-out: GT-1b (IC50).

Drawing on patent publication US20120230951A1 (priority 2011, published 2012), this text covers EC50 and IC50 for 12 molecules.

Where two headings read alike, the source gives them in different places.

For orientation: EC50 means the midpoint of the concentration-response curve. A low value points to greater potency. By IC50 is commonly meant the point on the concentration scale where inhibition reaches its midpoint.

The molecule `COC(=O)N[C@H]1CCc2cccc3c2N(C1=O)[C@H](c1ncc(-c2ccc(-c4ccc(-c5cnc([C@@H]6CCCN6C(=O)[C@@H](NC(=O)OC)C(C)C)[nH]5)cc4)cc2)[nH]1)C3` [Compound I-66, {(2S,5S)-2-[5-(4′-{2-[(S)-1-((S)-2-Methoxycarbonylamino-3-methyl-butyryl)-pyrrolidin-2-yl]-3H-imidazol-4-yl}-biphenyl-4-yl)-1H-imidazol-2-yl]-4-oxo-1,2,4,5,6,7-hexahydro-azepino[3,2,1-hi]indol-5-yl}-carbamic acid methyl ester] showed an EC50 in test [1] (setting [3]) of 0.036 nM. That is a picomolar value.
In test [1] (setting [3]), `COC(=O)N[C@H]1CCc2cccc3c2N(C1=O)[C@H](c1nc2ccc(-c4ccc5cc(-c6cnc([C@@H]7CCCN7C(=O)[C@@H](NC(=O)OC)C(C)C)[nH]6)ccc5c4)cc2[nH]1)C3` [Compound I-68] returned an EC50 of 0.062 nM.
As to `COC(=O)N[C@H]1CC(=O)c2cccc3c2N(C1=O)[C@H](c1ncc(-c2ccc(-c4ccc(-c5cnc([C@@H]6CCCN6C(=O)[C@@H](NC(=O)OC)C(C)C)[nH]5)cc4)cc2)[nH]1)C3` [Compound I-28, {(2S,5S)-2-[5-(4′-{2-[(S)-1-((S)-2-Methoxycarbonylamino-3-methyl-butyryl)-pyrrolidin-2-yl]-3H-imidazol-4-yl}-biphenyl-4-yl)-1H-imidazol-2-yl]-4,7-dioxo-1,2,4,5,6,7-hexahydro-azepino[3,2,1-hi]indol-5-yl}-carbamic acid methyl ester], the results for the IC50 in test [1] (setting [4]) and in test [2] were 0.01 nM and 1.81 nM, respectively.
In the same order, the values of `COC(=O)N[C@H]1CCc2cccc3c2N(C1=O)[C@H](c1ncc(-c2ccc(-c4ccc(-c5cnc([C@@H]6CCCN6C(=O)[C@@H](NC(=O)OC)C(C)C)[nH]5)cc4)c(F)c2)[nH]1)C3` [Compound I-35, {(2S,5S)-2-[5-(2-Fluoro-4′-{2-[(S)-1-((S)-2-methoxycarbonylamino-3-methyl-butyryl)-pyrrolidin-2-yl]-1H-imidazol-4-yl}-biphenyl-4-yl)-1H-imidazol-2-yl]-4-oxo-1,2,4,5,6,7-hexahydro-azepino[3,2,1-hi]indol-5-yl}-carbamic acid methyl ester] are 0.01 nM and 5.92 nM.
In the case of `COC(=O)N[C@H]1CCc2cccc3c2N(C1=O)[C@H](c1nc2ccc(-c4ccc(-c5ccc(-c6cnc([C@@H]7CCCN7C(=O)[C@@H](NC(=O)OC)C(C)C)[nH]6)cc5)cc4)cc2[nH]1)C3` [Compound I-11, {(2S,5S)-2-[6-(4′-{2-[(S)-1-((S)-2-Methoxycarbonylamino-3-methyl-butyryl)-pyrrolidin-2-yl]-3H-imidazol-4-yl}-biphenyl-4-yl)-1H-benzoimidazol-2-yl]-4-oxo-1,2,4,5,6,7-hexahydro-azepino[3,2,1-hi]indol-5-yl}-carbamic methyl ester], the IC50 in test [1] (setting [4]) is 2.82 nM; in test [2], 19.2 nM.
For `COC(=O)N[C@H]1CCc2cccc3c2N(C1=O)[C@H](c1ncc(-c2ccc(-c4ccc(-c5cnc([C@@H]6CCCN7C(=O)CC[C@H](NC(=O)OC)C(=O)N67)[nH]5)cc4)cc2)[nH]1)C3` [Compound I-67], a half-maximal response in test [1] (setting [3]) (EC50) required 0.528 nM.
In the case of `COC(=O)N[C@H]1CCc2cccc3c2N(C1=O)[C@H](c1ncc(-c2ccc(-c4ccc5cc(-c6cnc([C@@H]7CCCN7C(=O)[C@@H](NC(=O)OC)C(C)C)[nH]6)ccc5c4)cc2)[nH]1)C3` [Compound I-31, {(2S,5S)-2-[5-(4-(6-{2-[(S)-1-((S)-2-Methoxycarbonylamino-3-methyl-butyryl)-pyrrolidin-2-yl]-3H-imidazol-4-yl}-naphthalen-2-yl)-phenyl)-1H-imidazol-2-yl]-4-oxo-1,2,4,5,6,7-hexahydro-azepino[3,2,1-hi]indol-5-yl}-carbamic acid methyl ester], the results for the IC50 in test [1] (setting [4]) and in test [2] were 0.41 nM and 1.13 nM, respectively.
In the same order, the values of `COC(=O)N[C@H]1CCc2cccc3c2N(C1=O)[C@H](c1ncc(-c2ccc(-c4ccc(-c5cnc(C6CC7(CCOCC7)CN6C(=O)[C@@H](NC(=O)OC)C(C)C)[nH]5)cc4)cc2)[nH]1)C3` (stereo partly drawn) [Compound I-9, {(2S,5S)-2-[5-(4′-{2-[2-((S)-2-Methoxycarbonylamino-3-methyl-butyryl)-8-oxa-2-aza-spiro[4.5]dec-3-yl]-3H-imidazol-4-yl}-biphenyl-4-yl)-1H-imidazol-2-yl]-4-oxo-1,2,4,5,6,7-hexahydro-azepino[3,2,1-hi]indol-5-yl}-carbamic acid methyl ester] are 0.03 nM and 3.36 nM.
As to `COC(=O)N[C@H]1CCc2cccc3c2N(C1=O)[C@H](c1ncc(-c2cnc4cc(-c5ccc(-c6cnc([C@@H]7CC(F)(F)CN7C(=O)[C@@H](NC(=O)OC)C(C)C)[nH]6)cc5)ccc4c2)[nH]1)C3` [Compound I-19, ((2S,5S)-2-{5-[7-(4-{2-[(S)-1-((S)-2-Methoxycarbonylamino-3-methyl-butyryl)-4,4-difluoro-pyrrolidin-2-yl]-3H-imidazol-4-yl}-phenyl)-quinolin-3-yl]-1H-imidazol-2-yl}-4-oxo-1,2,4,5,6,7-hexahydro-azepino[3,2,1-hi]indol-5-yl)-carbamic acid methyl ester trifluroacetic acid], the IC50 in test [1] (Huh-7, 72 h, read-out: GT-1b (IC50) (nM)) was 0.16 nM; in test [2], 2.89 nM.
For `COC(=O)N[C@H]1CCc2cccc3c2N(C1=O)[C@H](c1ncc(-c2ccc(-c4cnc5cc(-c6cnc([C@@H]7CCCN7C(=O)[C@@H](NC(=O)OC)C(C)C)[nH]6)ccc5n4)cc2)[nH]1)C3` [Compound I-52, ((2S,5S)-2-{5-[4-(6-{2-[(S)-1-((S)-2-Methoxycarbonylamino-3-methyl-butyryl)-pyrrolidin-2-yl]-3H-imidazol-4-yl}-quinoxalin-2-yl)-phenyl]-1H-imidazol-2-yl}-4-oxo-1,2,4,5,6,7-hexahydro-azepino[3,2,1-hi]indol-5-yl)-carbamicacid methyl ester], the IC50 in test [1] (setting [4]) was found to be 0.03 nM; in test [2], 0.41 nM.
Consider `COC(=O)N[C@H]1CC(O)c2cccc3c2N(C1=O)[C@H](c1ncc(-c2ccc(-c4ccc(-c5cnc([C@@H]6CCCN6C(=O)[C@@H](NC(=O)OC)C(C)C)[nH]5)cc4)cc2)[nH]1)C3` (stereo partly drawn) [Compound I-29, {(2S,5S)-7-Hydroxy-2-[5-(4′-{2-[(S)-1-((S)-2-methoxycarbonylamino-3-methyl-butyryl)-pyrrolidin-2-yl]-3H-imidazol-4-yl}-biphenyl-4-yl)-1H-imidazol-2-yl]-4-oxo-1,2,4,5,6,7-hexahydro-azepino[3,2,1-hi]indol-5-yl}-carbamic acid methyl ester], for which the IC50 was 0.01 nM in test [1] (setting [4]) and 1.02 nM in test [2].
The corresponding values for `COC(=O)N[C@H]1CCc2cccc3c2N(C1=O)[C@H](c1ncc(-c2ccc(-c4cnc5cc(-c6cnc([C@@H]7CCCN7C(=O)[C@H](NC(=O)OC)c7ccccc7)[nH]6)ccc5n4)cc2)[nH]1)C3` [Compound I-55, ((2S,5S)-2-{5-[4-(6-{2-[(S)-1-((R)-2-Methoxycarbonylamino-2-phenyl-acetyl)-pyrrolidin-2-yl]-3H-imidazol-4-yl}-quinoxalin-2-yl)-phenyl]-1H-imidazol-2-yl}-4-oxo-1,2,4,5,6,7-hexahydro-azepino[3,2,1-hi]indol-5-yl)-carbamic acid methyl ester] are 0.01 nM and 0.79 nM.
